Measurements: PMC10733197, “Utilization of Rosuvastatin and Endogenous Biomarkers in Evaluating the Impact of Ritlecitinib on BCRP, OATP1B1, and OAT3 Transporter Activity” (Pharmaceutical Research, 2023)
pIC50: −log10 of the molar value. “And” between values parts separate entries of the source, which are not always exact repeats. Identical values can stand only once. Like-named read-outs stand apart in the source and are kept apart here.

Legend:
OATP1B3 = target: T1, OATP1B3 (Homo sapiens, UniProt Q9NPD5); details: CP-I 0.1 µM; 30-minute pre-incubation; HEK293; published data; ref 1 (Rodrigues AD 2023); cited from earlier work
T1 construct: expressed in transfected cells; host or cells: HEK293
T1 sequence (Q9NPD5 1-702): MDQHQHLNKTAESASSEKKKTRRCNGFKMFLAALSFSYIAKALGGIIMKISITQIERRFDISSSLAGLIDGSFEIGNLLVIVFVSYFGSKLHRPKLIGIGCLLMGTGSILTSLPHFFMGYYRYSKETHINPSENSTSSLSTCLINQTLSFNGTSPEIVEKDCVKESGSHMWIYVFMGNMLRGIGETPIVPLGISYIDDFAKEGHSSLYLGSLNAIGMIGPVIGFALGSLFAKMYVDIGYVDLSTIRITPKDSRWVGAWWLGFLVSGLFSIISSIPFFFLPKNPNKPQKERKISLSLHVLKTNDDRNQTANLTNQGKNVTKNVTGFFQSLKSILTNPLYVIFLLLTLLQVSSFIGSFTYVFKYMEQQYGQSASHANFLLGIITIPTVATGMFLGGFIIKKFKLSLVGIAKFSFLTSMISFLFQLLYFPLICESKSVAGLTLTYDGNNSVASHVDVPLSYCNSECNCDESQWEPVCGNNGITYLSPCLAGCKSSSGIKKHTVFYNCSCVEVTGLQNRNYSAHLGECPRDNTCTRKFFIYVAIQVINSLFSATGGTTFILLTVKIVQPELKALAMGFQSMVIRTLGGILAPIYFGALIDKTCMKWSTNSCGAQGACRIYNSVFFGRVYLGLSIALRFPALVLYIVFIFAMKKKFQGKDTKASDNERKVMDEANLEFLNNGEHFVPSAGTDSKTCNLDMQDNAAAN

OATP1B1 [1] = details: cited from earlier work; for ∆CP-I Observed: AUC ratio or single CP-I concentration ratio ± perpetrator, ref 1 (Rodrigues AD 2023)
OATP1B1 [2] = target: T2, OATP1B1 (Homo sapiens, UniProt Q9Y6L6); details: CP-I 0.1 µM; 30-minute pre-incubation; HEK293; published data; ref 1 (Rodrigues AD 2023); cited from earlier work
T2 construct: expressed in transfected cells; host or cells: HEK293
T2 sequence (Q9Y6L6 1-691): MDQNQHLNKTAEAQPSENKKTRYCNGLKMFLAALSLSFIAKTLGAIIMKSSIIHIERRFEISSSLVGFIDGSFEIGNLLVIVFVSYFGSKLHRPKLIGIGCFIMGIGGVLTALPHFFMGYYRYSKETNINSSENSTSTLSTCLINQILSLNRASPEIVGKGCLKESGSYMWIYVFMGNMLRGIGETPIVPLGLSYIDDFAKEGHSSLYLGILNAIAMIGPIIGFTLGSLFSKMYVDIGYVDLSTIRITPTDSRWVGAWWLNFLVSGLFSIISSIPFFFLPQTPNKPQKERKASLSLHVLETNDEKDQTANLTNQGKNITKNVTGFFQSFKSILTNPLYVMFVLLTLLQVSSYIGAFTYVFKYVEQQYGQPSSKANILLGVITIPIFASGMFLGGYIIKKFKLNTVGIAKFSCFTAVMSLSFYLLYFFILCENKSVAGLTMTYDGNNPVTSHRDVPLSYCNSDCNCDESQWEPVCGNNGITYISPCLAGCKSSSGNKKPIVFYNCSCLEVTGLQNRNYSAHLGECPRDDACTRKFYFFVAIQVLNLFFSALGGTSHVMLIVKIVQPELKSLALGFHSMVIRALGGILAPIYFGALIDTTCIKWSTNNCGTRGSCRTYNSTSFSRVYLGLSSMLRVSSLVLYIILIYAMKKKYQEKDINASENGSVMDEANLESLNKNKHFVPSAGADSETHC

[3] = cited from earlier work; for Imax,inlet,u: ka = 0.1 min^-1 assumed, ref 1 (Rodrigues AD 2023)
OATP1B1 [4] = assay: Plasma CP-I as endogenous biomarker of OATP1B1 in clinical DDI studies; type: in vivo, human; set-up: AUC24 / Cmax: unit not given beside the values; details: for AUC24 / Cmax: geometric mean (%CV)
Procedure: Blood and urine samples were collected at prespecified timepoints. Rosuvastatin plasma samples (~ 6 mL) were collected predose and at 0.5, 1, 2, 3, 4, 5, 6, 8, 10, 12, 16, 24, 36, 48, and 72 h postdose. CP-I and PDA plasma samples (~ 6 mL) were collected predose and at 0.5, 1, 2, 3, 4, 5, 6, 8, 10, 12, 16, and 24 h post rosuvastatin dosing. Rosuvastatin urine samples were collected at predose, 0–6 h, 6–12, 12–24, 24–48, and 48–72 h postdose. Each participant emptied their bladder just prior to dosing.
Quantification of CP-I was conducted by mass spectrometry according to King-Ahmad et al.. Plasma samples were spiked with stable label internal standard (^15N4-coproporphyrin I). CP-I was isolated through supported liquid extraction. The eluate was evaporated under a nitrogen stream at approximately 45 °C, and the remaining residue was reconstituted with 125 μL of water/acetonitrile/formic acid (750:250: 1, v/v/v). The final extract was analyzed via UPLC® with column switching and MS/MS detection using positive ion electrospray. A linear, 1/x^2 weighted, least-squares regression algorithm was used to quantitate sample concentrations.
The PK parameters for rosuvastatin, CP-I and PDA were calculated for each participant and each treatment using Pfizer’s internally validated electronic noncompartmental analysis software (eNCA) version 2.4.4. Samples below the lower limit of quantitation were set to zero for the PK analysis. Actual sample collection times were used for the PK analysis.
Natural log transformed area under the plasma concentration-time profile from time 0 extrapolated to infinity (AUCinf), maximum plasma concentration (Cmax), and apparent renal clearance (CLr) were analyzed using a mixed effect model with treatment as a fixed effect and participant as a random effect (SAS version 9.4; SAS Institute, Cary, NC, USA). Estimates of the adjusted mean differences (Test-Reference) and corresponding 90% CIs were obtained from the model. The adjusted mean difference and 90% CIs for the differences were exponentiated to provide estimates of the ratio of adjusted geometric means (Test/Reference) and 90% CIs for the ratios. Rosuvastatin alone was the reference treatment, while the rosuvastatin coadministered with ritlecitinib was the Test treatment.

[5] = rosuvastatin 10 mg + ritlecitinib 200 mg QD
[6] = with vs without ritlecitinib 200 mg QD

CCC(C)n1ncn(-c2ccc(N3CCN(c4ccc(OCC5COC(Cn6cncn6)(c6ccc(Cl)cc6Cl)O5)cc4)CC3)cc2)c1=O (stereo not drawn) [Itraconazole]
pIC50 (OATP1B3): 4.70
∆CP-I Observed (OATP1B1 [1]; inhibitor dose 200 mg): 0.9
pIC50 (OATP1B1 [2]): 4.70
Imax,inlet,u ([3]; inhibitor dose 200 mg): 0.3 µM

COc1ccc([C@@H]2Sc3ccccc3N(CCN(C)C)C(=O)[C@@H]2OC(C)=O)cc1 [Diltiazem]
pIC50 (OATP1B3): 3.76
pIC50 (OATP1B1 [2]): 4.00

CC/C(=C(/c1ccc(/C=C/C(=O)O)cc1)c1ccc2[nH]ncc2c1)c1ccc(F)cc1Cl [GDC-0810]
pIC50 (OATP1B3): 6.05
∆CP-I Observed (OATP1B1 [1]; inhibitor dose 600 mg): 1.5
pIC50 (OATP1B1 [2]): 6.70
Imax,inlet,u ([3]; inhibitor dose 600 mg): 0.009 µM

CCCN(CCC)S(=O)(=O)c1ccc(C(=O)O)cc1 [Probenecid]
pIC50 (OATP1B3): 3.93
∆CP-I Observed (OATP1B1 [1]; inhibitor dose 1,000 mg): 1.4
Cmax,u ([3]; inhibitor dose 1000 mg): 22 µM
Imax,inlet,u ([3]; inhibitor dose 1,000 mg): 56.6 µM

coproporphyrin I [CP-I]
increase in exposure (AUC24) (OATP1B1 [1]; plasma CP-I with coadministration of rifampicin vs rosuvastatin alone): 4.0 fold
AUC24 (OATP1B1 [4]; [5]): 8729 (21)
Cmax (OATP1B1 [4]; [5]): 418.8 (19)
AUC24 (OATP1B1 [4]; rosuvastatin 10 mg alone): 8915 (21)
Cmax (OATP1B1 [4]; rosuvastatin 10 mg alone): 427.1 (22)
AUC24 % Ratio (Test/Reference) of Adjusted Geometric Means (90% CI) (OATP1B1 [4]; [6]): 97.91 (92.24, 103.94) %
Cmax % Ratio (Test/Reference) of Adjusted Geometric Means (90% CI) (OATP1B1 [4]; [6]): 98.06 (93.13, 103.26) %

O=C(O)[C@H]1C2CCC(CC2)[C@@H]1Nc1nc(-c2c[nH]c3ncc(F)cc23)ncc1F [Pimodivir]
pIC50 (OATP1B3): 5.96
∆CP-I Observed (OATP1B1 [1]; inhibitor dose 600 mg): 1.4
pIC50 (OATP1B1 [2]): 6.30
Imax,inlet,u ([3]; inhibitor dose 600 mg): 0.4 µM

CC(=O)O[C@H]1C(=O)[C@@]2(C)[C@H]([C@H](OC(=O)c3ccccc3)[C@]3(O)C[C@H](OC(=O)[C@H](O)[C@@H](NC(=O)c4ccccc4)c4ccccc4)C(C)=C1C3(C)C)[C@]1(OC(C)=O)CO[C@@H]1C[C@@H]2O [Paclitaxel]
pIC50 (OATP1B3): 6.15
∆CP-I Observed (OATP1B1 [1]; inhibitor dose 200 mg): 2.8

CO[C@H]1/C=C/O[C@@]2(C)Oc3c(C)c(O)c4c(O)c(c(/C=N/N5CCN(C)CC5)c(O)c4c3C2=O)NC(=O)/C(C)=C\C=C\[C@H](C)[C@H](O)[C@@H](C)[C@@H](O)[C@@H](C)[C@H](OC(C)=O)[C@@H]1C [Rifampicin]
pIC50 (OATP1B3): 6.52
∆CP-I Observed (OATP1B1 [1]; inhibitor dose 150 mg): 1.5
∆CP-I Observed (OATP1B1 [1]; inhibitor dose 300 mg): 2.4 and 2.3
∆CP-I Observed (OATP1B1 [1]; inhibitor dose 600 mg): 3.5 and 3.7 and 4 and 5.6
Imax,inlet,u ([3]; inhibitor dose 150 mg): 3 µM
Imax,inlet,u ([3]; inhibitor dose 300 mg): 5.9 µM
Imax,inlet,u ([3]; inhibitor dose 600 mg): 11.9 µM

COc1ccc2c(O[C@@H]3C[C@H]4C(=O)N[C@]5(C(=O)NS(=O)(=O)C6CC6)C[C@H]5/C=C\CCCCN(C)C(=O)[C@@H]4C3)cc(-c3nc(C(C)C)cs3)nc2c1C [Simeprevir]
pIC50 (OATP1B3): 6.30
∆CP-I Observed (OATP1B1 [1]; inhibitor dose 150 mg): 1.4
pIC50 (OATP1B1 [2]): 6.00
Imax,inlet,u ([3]; inhibitor dose 150 mg): 0.002 µM

C[C@H]1CN(C2COC2)CCN1c1ccc(Nc2cc(-c3ccnc(N4CCn5c(cc6c5CC(C)(C)C6)C4=O)c3CO)cn(C)c2=O)nc1 [Fenebrutinib]
pIC50 (OATP1B3): 5.92
∆CP-I Observed (OATP1B1 [1]; inhibitor dose 200 mg): 1
pIC50 (OATP1B1 [2]): 5.21
Imax,inlet,u ([3]; inhibitor dose 200 mg): 4.2 µM

C[C@H]1CCN1c1nc(N2C[C@@H]3[C@@H](CC(=O)O)[C@@H]3C2)cc(C(F)(F)F)n1 [PF-06835919]
pIC50 (OATP1B3): 5.25
∆CP-I Observed (OATP1B1 [1]; inhibitor dose 50 mg): 1.1
∆CP-I Observed (OATP1B1 [1]; inhibitor dose 100 mg): 1.2
∆CP-I Observed (OATP1B1 [1]; inhibitor dose 280 mg): 1.5
∆CP-I Observed (OATP1B1 [1]; inhibitor dose 400 mg): 1.3
∆CP-I Observed (OATP1B1 [1]; inhibitor dose 600 mg): 1.8
pIC50 (OATP1B1 [2]): 5.37
Imax,inlet,u ([3]; inhibitor dose 50 mg): 1.5 µM
Imax,inlet,u ([3]; inhibitor dose 100 mg): 2.5 µM
Imax,inlet,u ([3]; inhibitor dose 280 mg): 8.2 µM
Imax,inlet,u ([3]; inhibitor dose 400 mg): 10.3 µM
Imax,inlet,u ([3]; inhibitor dose 600 mg): 15.3 µM
